According to patent publication EP4563573A1, “COMPOUND, AND PREPARATION METHOD THEREFOR AND USE THEREOF IN PREPARATION OF SEH INHIBITOR AND PPARS AGONIST” (Shenyang Pharmaceutical University, priority 2023, dated 2024):
Read-outs that look alike come from different tables or passages of the source.

What was measured:
[1] = molecular target: T1, recombinant human sEH (HsEH) (Homo sapiens, UniProt P34913)
T1 sequence (P34913 1-555): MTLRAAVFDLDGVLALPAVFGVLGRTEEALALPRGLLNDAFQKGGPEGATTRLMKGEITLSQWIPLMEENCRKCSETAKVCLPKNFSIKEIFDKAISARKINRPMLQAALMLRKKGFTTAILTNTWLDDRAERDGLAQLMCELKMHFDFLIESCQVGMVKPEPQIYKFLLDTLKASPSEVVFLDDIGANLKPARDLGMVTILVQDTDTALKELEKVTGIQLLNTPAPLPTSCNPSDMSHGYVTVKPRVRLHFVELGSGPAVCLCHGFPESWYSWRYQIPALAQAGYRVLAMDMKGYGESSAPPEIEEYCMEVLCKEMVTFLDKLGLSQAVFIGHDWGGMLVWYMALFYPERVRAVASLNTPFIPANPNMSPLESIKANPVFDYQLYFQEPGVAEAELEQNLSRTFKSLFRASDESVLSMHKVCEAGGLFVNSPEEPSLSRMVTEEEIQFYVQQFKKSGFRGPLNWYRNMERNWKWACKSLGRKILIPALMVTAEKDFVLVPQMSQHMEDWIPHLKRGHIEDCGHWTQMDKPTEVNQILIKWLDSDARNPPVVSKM
Experimental: (§2) Detection principle: a specific substrate, (3-phenyl-oxy)-acetic acid cyano-(6-methoxy-naphthalen-2-yl) methyl ester, namely PHOME, is non-fluorescent but can be hydrolyzed under the action of sEH enzyme to generate a product 6-methoxy-2-naphthaldehyde. […] Based on the above principle, the inhibition rates of samples with different concentrations were calculated compared with the positive control group. The IC50 value of the compound was calculated based on the inhibition rate and concentration using SPSS 20 software.
(§3) PHOME solution: 0.79 mg PHOME was dissolved in 106 µL DMSO to obtain a 20 mM PHOME solution, which was diluted to 1/3 mM with Tris-HCl buffer when used.
(§4) sEH solution: sEH (5 mg/mL) stock solution was stored in a -80°C refrigerator and diluted to 4 µg/mL with 25 mM Tris-HCl buffer when used.
(§5) A sample powder to be tested was dissolved in DMSO to a 20 mM solution, stored in a - 20°C refrigerator for later use, and diluted with Tris-HCl buffer to the corresponding concentration when used.
(§6) Experimental design: solvent group, 100% activity group (A), inhibitor group (B), positive control group (C), as shown in Table 1.
(§7) Three replicate wells were set for each sample, and the average of the three replicate wells was the fluorescence value (F) of the compound to be tested. […] The IC50 value of the compound was calculated based on the inhibition rate and concentration using SPSS 20 software.
(§8) The activity of the compounds was evaluated using a biochemical method with [cyano-(6-methoxynaphthalen-2-yl)methyl] 2-(3-phenyloxiran-2-yl)acetate (PHOME) as a substrate using recombinant human sEH (HsEH) and murine sEH (MsEH).

[2] = molecular target: T2, murine sEH (MsEH) (Mus musculus, UniProt P34914); details: read-out: MsEH IC50, PHOME substrate
T2 sequence (P34914 1-554): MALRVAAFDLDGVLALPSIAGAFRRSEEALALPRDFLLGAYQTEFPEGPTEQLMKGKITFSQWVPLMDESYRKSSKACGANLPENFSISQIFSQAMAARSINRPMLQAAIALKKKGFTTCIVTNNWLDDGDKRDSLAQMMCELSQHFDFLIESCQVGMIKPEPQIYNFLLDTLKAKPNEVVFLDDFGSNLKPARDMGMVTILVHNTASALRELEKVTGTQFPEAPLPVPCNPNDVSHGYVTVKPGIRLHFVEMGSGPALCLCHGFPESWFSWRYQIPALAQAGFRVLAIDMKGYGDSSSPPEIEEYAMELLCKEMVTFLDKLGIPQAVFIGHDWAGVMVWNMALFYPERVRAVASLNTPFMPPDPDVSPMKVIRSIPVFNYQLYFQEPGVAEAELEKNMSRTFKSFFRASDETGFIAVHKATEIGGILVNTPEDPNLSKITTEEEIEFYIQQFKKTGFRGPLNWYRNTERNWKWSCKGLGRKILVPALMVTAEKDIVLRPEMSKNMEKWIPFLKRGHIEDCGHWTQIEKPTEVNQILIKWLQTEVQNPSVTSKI
Experimental: as §2, §3, §4, §5, §6, §7, §8

[3] = molecular target: T3, PPARγ (Homo sapiens, UniProt P37231); test: PPARγ agonist activity test (luciferase reporter gene); type: cell-based; details: for PPARγ (compared with Rosiglitazone, %): relative to Rosiglitazone
T3 sequence (P37231 204-505): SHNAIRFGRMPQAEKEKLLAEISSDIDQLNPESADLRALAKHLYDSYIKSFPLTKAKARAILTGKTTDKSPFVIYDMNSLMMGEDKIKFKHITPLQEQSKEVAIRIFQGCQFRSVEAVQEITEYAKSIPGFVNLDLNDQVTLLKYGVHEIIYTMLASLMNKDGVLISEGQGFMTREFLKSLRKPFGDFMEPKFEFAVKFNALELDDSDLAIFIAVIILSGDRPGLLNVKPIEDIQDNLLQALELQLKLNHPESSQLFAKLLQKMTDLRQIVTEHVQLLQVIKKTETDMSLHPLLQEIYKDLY
From the text: • 1. PPARγ agonist activity test Detection principle: when pM-hPPAR binds to the appropriate ligand, and is activated and binds to the GAL4DNA binding site in the plasmid pB4-RES-tk-luc, thereby initiating the expression of the downstream luciferase reporter gene. The amount of luciferase is detected to determine whether the compound to be tested is a PPAR agonist. • 2.

[4] = system: L-arginine-induced acute pancreatitis model; details: 5 mg/kg, n=5
From the text: Pathological changes were studied on H&E stained pancreatic sections (FIG. 17).
Specifically, panel (A) represents edema, panel (B) represents inflammatory cells (mononuclear and polymorphonuclear cells), panel (C) represents parenchymal atrophy, and panel (D) represents the total score (edema, mononuclear cell, polymorphonuclear cell, and parenchymal atrophy) (n=5 for each group) *p<0.05, **p<0.01 vs Mod.

[5] = system: CFA-induced rheumatoid arthritis model
Experimental: Except for the normal group, the animals in the other groups were injected with 25 µL/mouse of CFA at the bottom of right feet. Different drugs were prepared with pure water to the corresponding concentrations before administration. 30 min after modeling, different test substances were administrated to the animals in each group by oral gavage at 20 mL/kg, 1 time on the same day. The normal control group and the model control group were given the same volume of pure water. […] On the 20th day after modeling, all model animals were regrouped according to the joint index score and administrated with 20 mL/kg by oral gavage 1 time daily for consecutive 7 days. The joint index score of each group was determined on the 3rd and 7th days after administration, and the pain threshold of the animals was tested with a hot plate instrument after the last administration.
The significant figures of the test data were rounded off and statistical analysis was conducted in accordance with SOP. The software used for statistics was SPSS22.0. Measurement data were expressed as Mean ± standard deviation (x ± s), and Leven's test was used to test normality and homogeneity of variance. If there was no statistical significance (P>0.05), statistical analysis was done using one-factor ANOVA. If ANOVA was statistically significant (P≤0.05), LSD test (parametric method) was used for comparative analysis. If variance was unequal (P≤0.05), the Kruskal-Wallis test was used. If the Kruskal-Wallis test was statistically significant (P≤0.05), Dunnett's Test (nonparametric method) was used for comparative analysis.

[6] = system: CFA-induced AIA mouse model; details: C57BL/6 mice, oral gavage
[7] = system: chronic granuloma model; details: rats, 20 mg/kg oral gavage once a day for 7 days (medium-dose; celecoxib group)
Experimental: After the animals were anesthetized by isoflurane inhalation, cotton balls of about 50 mg were buried in the groin of the rats on both sides. The surgical procedure was strictly conducted aseptically. Penicillin was injected intraperitoneally for anti-inflammatory treatment after surgery. Before administration, different drugs were prepared into a concentration of 0.5 mg/mL with pure water in each group, and different test substances were administered by oral gavage at 10 mL/kg, 1 time a day for consecutive 7 days, while the model control group was administrated with an equal volume of pure water. After the last administration, the mice were anesthetized by isoflurane inhalation and then bled, and the cotton ball granuloma was removed and weighed to calculate the degree of swelling (wet weight of cotton ball granuloma - dry weight of cotton ball).
The significant figures of the test data were rounded off and statistical analysis was conducted in accordance with SOP. The software used for statistics was SPSS22.0. Measurement data were expressed as Mean ± standard deviation (x ± s), and Leven's test was used to test normality and homogeneity of variance. If there was no statistical significance (P>0.05), statistical analysis was done using one-factor ANOVA. If ANOVA was statistically significant (P≤0.05), LSD test (parametric method) was used for comparative analysis. […]

[8] = Plasma protein binding rate (equilibrium dialysis); details: rat
Experimental: The plasma protein binding rate (%PPB) of SD rats was measured by classical equilibrium dialysis apparatus.

[9] = system: CFA-induced AIA mouse model; test: CFA-induced AIA mouse model, intraperitoneal injection; type: in vivo; details: female KM mice, compared with celecoxib-10 mg/kg
Experimental: (§1) The pain threshold of AIA mice was tested by the hot plate method. […] A curve of the increase in pain threshold over time was plotted (panel (B) in FIG. 10), and the AUC value of the percentage increase in pain threshold was obtained (panel (C) in FIG. 10). […] Finally, the thickness of the paws of the AIA mouse model at different time points after compound injection was evaluated and compared with the thickness of the mouse paws before modeling, and the swelling reduction rate of the mouse paws was calculated.
as §1, with “11),” for “10),”, “11).” for “10).”

[10] = system: CD60 diet + streptozotocin-induced diabetes; test: CD60 feed + streptozotocin-induced diabetes model; type: in vivo, male C57BL/6 mice; details: SP compounds 30 and 90 mg/kg; pioglitazone 3 mg/kg
From the text: Diabetes is a chronic metabolic disease characterized by elevated blood glucose, and its incidence has been increasing over the past few decades. There is no desirable therapeutic drug at present, and the research on drugs for the treatment of diabetes and its related complications such as diabetic pain is highly urgent. […] Compared with the Control group, ****P<0.0001, ***P<0.001, **P<0.01 and *P<0.05.

[11] = system: LPS-induced sepsis model; test: LPS-induced sepsis model; type: in vivo, Male C57BL/6 mice; details: LPS 25 mg/kg i.p., administration 4 h after modeling, twice at 8 h interval, n=7
Experimental: The drug was administered twice, with an interval of 8 h between administrations.

[12] = Pharmacokinetics after intravenous and oral administration
Experimental: Blood levels were measured within 8 hours after oral administration. […] Table 7 PK of SP-B07 after intravenous and oral administration in rats (n=3)

[13] = molecular target: T2, murine sEH (MsEH); test: biochemical
Experimental: as §2, §3, §4, §5, §6, §7, §8

[14] = Stability of liver microsomes; details: for Average concentration in microsomal buffer: Rat; for half-life: rat, microsomes
From the text: Table 5 Average concentration of SP-B07 in microsomal buffer at different time points (ng/mL)

[15] = read-out: HsEH IC50, recombinant human sEH, PHOME substrate
[16] = 30 mg/kg oral gavage (medium-dose; celecoxib group), 0.5 h after administration
[17] = 30 mg/kg oral gavage (medium-dose; celecoxib group), 2 h after administration
[18] = 30 mg/kg oral gavage (medium-dose; celecoxib group), 4 h after administration

For `COC(=O)CN1C(=O)S/C(=C\c2ccc(O[C@H]3CC[C@H](NC(=O)Nc4ccc(OC(F)(F)F)cc4)CC3)cc2)C1=O` [SP-D01, methyl 2-(2,4-dioxo-5-((Z)-4-(((1r,4r)-4-(3-(4-(trifluoromethoxy)phenyl)ureido)cyclohexyl)oxy)benzylidene)thiazolidin-3-yl)acetate], the IC50 [1, 15] was 1.1 nM, the IC50 [2] was 2.4 nM and the “PPARγ (compared with Rosiglitazone, %)” value [3] was 1.1%.

For `O=C1NC(=O)C(Cc2ccc(OC3CCN(C(=O)Nc4ccc(OC(F)(F)F)cc4)CC3)cc2)S1` (stereo not drawn) [SP-A05], the IC50 [1, 15] was 0.53 nM, the IC50 [2] was 0.43 nM and the “PPARγ (compared with Rosiglitazone, %)” value [3] was 14.3%.

In the case of `O=C1NC(=O)C(Cc2ccc(OC3CCN(C(=O)Nc4ccc(OC(F)(F)F)c(F)c4)CC3)cc2)S1` (stereo not drawn) [SP-A06], the IC50 [1, 15] is reported as 1.3 nM, the IC50 [2] is reported as 0.73 nM and the “PPARγ (compared with Rosiglitazone, %)” value [3] is reported as 28.4%.

For `Cc1ccc(-c2cc(C(F)(F)F)nn2-c2ccc(S(N)(=O)=O)cc2)cc1` [Celecoxib, celecoxib], the “pancreatic injury histological score” value [4] was 3.50±1.80, the “Pain threshold in acute inflammatory state” value ([5]; 30 mg/kg group (medium-dose; celecoxib group), Before administration) was 20.7±4.2 and the “Pain threshold in chronic inflammatory state” value ([5]; 30 mg/kg oral gavage (medium-dose; celecoxib group), once daily for 7 days, End of administration) was 13.7±4.6. For the same compound, the “Acute pain threshold increase rate of mice” value [5, 16] was -35.2±29.8%, the “Pain threshold in acute inflammatory state” value [5, 16] was 13.2±6.3 and the “Acute pain threshold increase rate of mice” value ([5]; 30 mg/kg oral gavage (medium-dose; celecoxib group), 1 h after administration) was -52.3±55.5%. For the same compound, the “Acute pain threshold increase rate of mice” value [5, 17] was 34.52±54.1 %, the “Pain threshold in acute inflammatory state” value [5, 17] was 23.9±5.3 and the “Acute pain threshold increase rate of mice” value [5, 18] was -11.6±32.6 %. For the same compound, the “Pain threshold in acute inflammatory state” value [5, 18] was 18.7±6.0, the “time after administration at which the pain threshold began to rise” value [6] was 30 min and the Swelling degree [7] was 0.9904±0.12++.

In the case of `O=C(Nc1ccc(OC(F)(F)F)c(F)c1)NC1CCC(Oc2ccc(C=C3SC(=O)NC3=O)cc2)CC1` (stereo not drawn) [SP-B07, 1-((1r,4r)-4-{4-[(E)-(2,4-dioxothiazolidin-5-ylidene)methyl]phenoxy}cyclohexyl)-3-[3-fluoro-4-(trifluoromethoxy)phenyl]urea], the fraction unbound [8] is reported as 0.0471, the “analgesic effect (percentage increase in pain threshold, hot plate method)” value [9] is reported as “better than that of celecoxib” and the “detumescence rate on mouse paws (swelling reduction rate)” value [9] is reported as “superior to celecoxib”. The “lowering blood glucose and improving diabetic neuropathic pain” value [10] was “effective”, the “increase of the survival rate” value [11] was 42.8% and the AUC(0-inf) ([12]; rat, in vivo, iv, 10 mg/kg) was 16.9 µM·h. It also gave an AUC(0-t) at 8 h ([12]; rat, in vivo, iv, 10 mg/kg) of 14.1 µM·h, a Cmax ([12]; rat, in vivo, iv, 10 mg/kg) of 3290 nM and a Tmax ([12]; rat, in vivo, iv, 10 mg/kg) of 0.083 h. For the same compound, the Vd ([12]; rat, in vivo, iv, 10 mg/kg) was 3.71 L/kg, the clearance ([12]; rat, in vivo, iv, 10 mg/kg) was 13.2 mL/min/kg and the half-life ([12]; rat, in vivo, iv, 10 mg/kg, t1/2, rats, i.v. 10 mg/kg) was 1.91 h. The AUC(0-inf) ([12]; rat, in vivo, po, 50 mg/kg) was 17.7 µM·h, the AUC(0-t) at 8 h ([12]; rat, in vivo, po, 50 mg/kg) was 13.8 µM·h and the Cmax ([12]; rat, in vivo, po, 50 mg/kg) was 1140 nM. The Tmax ([12]; rat, in vivo, po, 50 mg/kg) was 0.5 h, the bioavailability ([12]; rat, in vivo, po, 50 mg/kg) was 19.5% and the “time at which maximum concentration was reached after intravenous injection” value ([12]; rats, i.v. 10 mg/kg) was 2 min. The t1/2 ([12]; rats, i.v. 10 mg/kg, 10 mg/kg) was 3.26 h, the IC50 [13] was 0.42 nM and the IC50 [1] was 0.06 nM. The “Average concentration in microsomal buffer” value (“Average concentration” below) ([14]; 0 min) was 100 ng/mL, the “Average concentration” value ([14]; 10 min) was 86.26 ng/mL and the “Average concentration” value ([14]; 60 min) was 58.82 ng/mL. The “Average concentration” value ([14]; 120 min) was 57.01 ng/mL, the “Average concentration” value ([14]; 240 min) was 55.61 ng/mL and the “Average concentration” value ([14]; 360 min) was 52.33 ng/mL. The “Average concentration” value ([14]; 720 min) was 43.73 ng/mL, the half-life ([14]; half-life (t1/2) in rat liver microsomes, rat liver microsomes) was 5.5 h and the half-life ([14]; t1/2, rat liver microsomes, table) was 5.5 h. The EC50 [3] was 1430 nM and the “PPARγ (compared with Rosiglitazone, %)” value [3] was 19.3%.

In the case of `C[C@@H]1C[C@H]2[C@@H]3CCC4=CC(=O)C=C[C@]4(C)[C@@]3(F)[C@@H](O)C[C@]2(C)[C@@]1(O)C(=O)CO` [dexamethasone, reference compound], the “increase of the survival rate” value [11] is reported as 57.1%.
